Experimental data: patent US9529005B2, “Modulating bacterial MAM polypeptides in pathogenic disease” (priority 2011, dated 2016)
Converted amounts (≈) assume the structure as drawn. Read-outs that look alike come from different tables or passages of the source.

Key:
Assay in all cases: Antimicrobial susceptibility testing (MIC), BD Phoenix Automated Microbiology System; on interpretation of the result: key: R, resistant; I, intermediate; S, susceptible; R*: *As a rule, when ESBL is detected, an interpretation of susceptible or intermediate for penicillins, cephalosporins and aztreonam is reported as resistant
Type in all cases: cell-based
Acinetobacter baumannii = settings: for MIC: Acinetobacter baumannii
Text: (§1) The inventors performed antimicrobial susceptibility testing (AST) by determining the minimal inhibiting concentration (MIC) of a panel of antimicrobials on all twenty bacterial isolates using the BD Phoenix Automated Microbiology System (Table 3). Antimicrobial panels included several drugs from each of the four most commonly used classes of antimicrobials, aminoglycosides, β-lactams, carbapenems and fluoroquinolones. The panels also included antimicrobials from other classes, such as trimethoprim/sulfamethoxazole, but resistance to these was not considered in the classification of isolates as multidrug-resistant.

Escherichia coli = settings: for MIC: Escherichia coli
Text: as §1

Klebsiella ssp. = settings: for MIC: Klebsiella
Text: as §1

Pseudomonas aeruginosa = settings: for MIC: Pseudomonas aeruginosa
Text: as §1

[1] = Acinetobacter baumannii isolate 1
[2] = Acinetobacter baumannii isolate 2
[3] = Acinetobacter baumannii isolate 3
[4] = Acinetobacter baumannii isolate 4
[5] = Acinetobacter baumannii isolate 5
[6] = Pseudomonas aeruginosa isolate 1
[7] = Pseudomonas aeruginosa isolate 2
[8] = Pseudomonas aeruginosa isolate 3
[9] = Pseudomonas aeruginosa isolate 4
[10] = Pseudomonas aeruginosa isolate 5
[11] = read-out: minimal inhibiting concentration, Acinetobacter baumannii isolate 1
[12] = read-out: minimal inhibiting concentration, Acinetobacter baumannii isolate 2
[13] = read-out: minimal inhibiting concentration, Acinetobacter baumannii isolate 3
[14] = read-out: minimal inhibiting concentration, Acinetobacter baumannii isolate 4
[15] = read-out: minimal inhibiting concentration, Acinetobacter baumannii isolate 5
[16] = read-out: minimal inhibiting concentration, Escherichia coli isolate 1
[17] = read-out: minimal inhibiting concentration, Escherichia coli isolate 2
[18] = read-out: minimal inhibiting concentration, Escherichia coli isolate 3
[19] = read-out: minimal inhibiting concentration, Escherichia coli isolate 4
[20] = read-out: minimal inhibiting concentration, Escherichia coli isolate 5
[21] = read-out: minimal inhibiting concentration, Klebsiella ssp. isolate 1
[22] = read-out: minimal inhibiting concentration, Klebsiella ssp. isolate 2
[23] = read-out: minimal inhibiting concentration, Klebsiella ssp. isolate 3
[24] = read-out: minimal inhibiting concentration, Klebsiella ssp. isolate 4
[25] = read-out: minimal inhibiting concentration, Klebsiella ssp. isolate 5
[26] = read-out: minimal inhibiting concentration, Pseudomonas aeruginosa isolate 1
[27] = read-out: minimal inhibiting concentration, Pseudomonas aeruginosa isolate 2
[28] = read-out: minimal inhibiting concentration, Pseudomonas aeruginosa isolate 3
[29] = read-out: minimal inhibiting concentration, Pseudomonas aeruginosa isolate 4
[30] = read-out: minimal inhibiting concentration, Pseudomonas aeruginosa isolate 5

With `CC(C)(O/N=C(\C(=O)N[C@@H]1C(=O)N2C(C(=O)[O-])=C(C[n+]3ccccc3)CS[C@H]12)c1csc(N)n1)C(=O)O` [Ceft., Ceftazidime] the “interpretation of the result” value (Acinetobacter baumannii; [1]) was “R”, the “interpretation of the result” value (Acinetobacter baumannii; [2]) was “R” and the “interpretation of the result” value (Acinetobacter baumannii; [3]) was “S”. The “interpretation of the result” value (Acinetobacter baumannii; [4]) was “R”, the “interpretation of the result” value (Acinetobacter baumannii; [5]) was “R” and the MIC (Acinetobacter baumannii; Acinetobacter baumannii isolate 1, read-out: minimal inhibiting concentration) was > 16 µg/mL. For the same compound, the MIC (Acinetobacter baumannii; Acinetobacter baumannii isolate 2, read-out: minimal inhibiting concentration) was > 16 µg/mL, the MIC (Acinetobacter baumannii; Acinetobacter baumannii isolate 3, read-out: minimal inhibiting concentration) was 8 µg/mL (≈ 14.6 µM) and the MIC (Acinetobacter baumannii; Acinetobacter baumannii isolate 4, read-out: minimal inhibiting concentration) was > 16 µg/mL. The MIC (Acinetobacter baumannii; Acinetobacter baumannii isolate 5, read-out: minimal inhibiting concentration) was > 16 µg/mL, the “interpretation of the result” value (Escherichia coli; Escherichia coli isolate 1) was “R” and the “interpretation of the result” value (Escherichia coli; Escherichia coli isolate 2) was “R”. The “interpretation of the result” value (Escherichia coli; Escherichia coli isolate 3) was “R”, the “interpretation of the result” value (Escherichia coli; Escherichia coli isolate 4) was “R” and the MIC (Escherichia coli; Escherichia coli isolate 1, read-out: minimal inhibiting concentration) was > 16 µg/mL. The MIC (Escherichia coli; Escherichia coli isolate 2, read-out: minimal inhibiting concentration) was > 16 µg/mL, the MIC (Escherichia coli; Escherichia coli isolate 3, read-out: minimal inhibiting concentration) was > 16 µg/mL and the MIC (Escherichia coli; Escherichia coli isolate 4, read-out: minimal inhibiting concentration) was > 16 µg/mL. For the same compound, the MIC (Escherichia coli; Escherichia coli isolate 5, read-out: minimal inhibiting concentration) was 4 µg/mL (≈ 7.32 µM), the “interpretation of the result” value (Klebsiella ssp.; Klebsiella ssp. isolate 1) was “R” and the “interpretation of the result” value (Klebsiella ssp.; Klebsiella ssp. isolate 5) was “R”. The MIC (Klebsiella ssp.; Klebsiella ssp. isolate 1, read-out: minimal inhibiting concentration) was > 16 µg/mL, the MIC (Klebsiella ssp.; Klebsiella ssp. isolate 2, read-out: minimal inhibiting concentration) was > 2 µg/mL and the MIC (Klebsiella ssp.; Klebsiella ssp. isolate 3, read-out: minimal inhibiting concentration) was > 2 µg/mL. For the same compound, the MIC (Klebsiella ssp.; Klebsiella ssp. isolate 4, read-out: minimal inhibiting concentration) was > 2 µg/mL, the MIC (Klebsiella ssp.; Klebsiella ssp. isolate 5, read-out: minimal inhibiting concentration) was > 16 µg/mL and the “interpretation of the result” value (Pseudomonas aeruginosa; [6]) was “R”. For the same compound, the “interpretation of the result” value (Pseudomonas aeruginosa; [7]) was “S”, the “interpretation of the result” value (Pseudomonas aeruginosa; [8]) was “R” and the “interpretation of the result” value (Pseudomonas aeruginosa; [9]) was “R”. For the same compound, the “interpretation of the result” value (Pseudomonas aeruginosa; [10]) was “R”, the MIC (Pseudomonas aeruginosa; Pseudomonas aeruginosa isolate 1, read-out: minimal inhibiting concentration) was > 16 µg/mL and the MIC (Pseudomonas aeruginosa; Pseudomonas aeruginosa isolate 2, read-out: minimal inhibiting concentration) was 8 µg/mL (≈ 14.6 µM). For the same compound, the MIC (Pseudomonas aeruginosa; Pseudomonas aeruginosa isolate 3, read-out: minimal inhibiting concentration) was > 16 µg/mL, the MIC (Pseudomonas aeruginosa; Pseudomonas aeruginosa isolate 4, read-out: minimal inhibiting concentration) was > 16 µg/mL and the MIC (Pseudomonas aeruginosa; Pseudomonas aeruginosa isolate 5, read-out: minimal inhibiting concentration) was > 16 µg/mL.

With `C[C@@H](O)[C@H]1C(=O)N2C(C(=O)O)=C(SCCN=CN)C[C@H]12` [Im., Imipenem] the “interpretation of the result” value (Acinetobacter baumannii; [1]) was “S”, the “interpretation of the result” value (Acinetobacter baumannii; [2]) was “R” and the “interpretation of the result” value (Acinetobacter baumannii; [3]) was “R”. For the same compound, the “interpretation of the result” value (Acinetobacter baumannii; [4]) was “S”, the “interpretation of the result” value (Acinetobacter baumannii; [5]) was “R” and the MIC (Acinetobacter baumannii; [11]) was 2 µg/mL (≈ 6.68 µM). The MIC (Acinetobacter baumannii; [12]) was > 8 µg/mL, the MIC (Acinetobacter baumannii; [13]) was > 8 µg/mL and the MIC (Acinetobacter baumannii; [14]) was 2 µg/mL (≈ 6.68 µM). For the same compound, the MIC (Acinetobacter baumannii; [15]) was > 8 µg/mL, the “interpretation of the result” value (Escherichia coli; Escherichia coli isolate 1) was “S” and the “interpretation of the result” value (Escherichia coli; Escherichia coli isolate 2) was “S”. The “interpretation of the result” value (Escherichia coli; Escherichia coli isolate 3) was “S”, the “interpretation of the result” value (Escherichia coli; Escherichia coli isolate 4) was “S” and the “interpretation of the result” value (Escherichia coli; Escherichia coli isolate 5) was “S”. For the same compound, the MIC (Escherichia coli; [16]) was ≤ 1 µg/mL, the MIC (Escherichia coli; [17]) was ≤ 1 µg/mL and the MIC (Escherichia coli; [18]) was ≤ 1 µg/mL. For the same compound, the MIC (Escherichia coli; [19]) was ≤ 1 µg/mL, the MIC (Escherichia coli; [20]) was ≤ 1 µg/mL and the “interpretation of the result” value (Klebsiella ssp.; Klebsiella ssp. isolate 1) was “S”. The “interpretation of the result” value (Klebsiella ssp.; Klebsiella ssp. isolate 2) was “S”, the “interpretation of the result” value (Klebsiella ssp.; Klebsiella ssp. isolate 3) was “S” and the “interpretation of the result” value (Klebsiella ssp.; Klebsiella ssp. isolate 4) was “S”. The “interpretation of the result” value (Klebsiella ssp.; Klebsiella ssp. isolate 5) was “S”, the MIC (Klebsiella ssp.; [21]) was ≤ 1 µg/mL and the MIC (Klebsiella ssp.; [22]) was ≤ 1 µg/mL. For the same compound, the MIC (Klebsiella ssp.; [23]) was ≤ 1 µg/mL, the MIC (Klebsiella ssp.; [24]) was ≤ 1 µg/mL and the MIC (Klebsiella ssp.; [25]) was ≤ 1 µg/mL. The “interpretation of the result” value (Pseudomonas aeruginosa; [6]) was “R”, the “interpretation of the result” value (Pseudomonas aeruginosa; [7]) was “R” and the “interpretation of the result” value (Pseudomonas aeruginosa; [8]) was “R”. For the same compound, the “interpretation of the result” value (Pseudomonas aeruginosa; [9]) was “R”, the “interpretation of the result” value (Pseudomonas aeruginosa; [10]) was “S” and the MIC (Pseudomonas aeruginosa; [26]) was > 8 µg/mL. The MIC (Pseudomonas aeruginosa; [27]) was > 8 µg/mL, the MIC (Pseudomonas aeruginosa; [28]) was > 8 µg/mL and the MIC (Pseudomonas aeruginosa; [29]) was > 8 µg/mL. For the same compound, the MIC (Pseudomonas aeruginosa; [30]) was 2 µg/mL (≈ 6.68 µM).

In the case of `C[C@H]1COc2c(N3CCN(C)CC3)c(F)cc3c(=O)c(C(=O)O)cn1c23` [Lev., Levofloxacin], the “interpretation of the result” value (Acinetobacter baumannii; [1]) is reported as “R”, the “interpretation of the result” value (Acinetobacter baumannii; [2]) is reported as “R” and the “interpretation of the result” value (Acinetobacter baumannii; [3]) is reported as “I”. The “interpretation of the result” value (Acinetobacter baumannii; [4]) was “R”, the “interpretation of the result” value (Acinetobacter baumannii; [5]) was “R” and the MIC (Acinetobacter baumannii; [11]) was > 4 µg/mL. For the same compound, the MIC (Acinetobacter baumannii; [12]) was > 4 µg/mL, the MIC (Acinetobacter baumannii; [13]) was 4 µg/mL (≈ 11.1 µM) and the MIC (Acinetobacter baumannii; [14]) was > 4 µg/mL. For the same compound, the MIC (Acinetobacter baumannii; [15]) was > 4 µg/mL, the “interpretation of the result” value (Escherichia coli; Escherichia coli isolate 1) was “R” and the “interpretation of the result” value (Escherichia coli; Escherichia coli isolate 2) was “R”. The “interpretation of the result” value (Escherichia coli; Escherichia coli isolate 3) was “R”, the “interpretation of the result” value (Escherichia coli; Escherichia coli isolate 4) was “R” and the “interpretation of the result” value (Escherichia coli; Escherichia coli isolate 5) was “R”. For the same compound, the MIC (Escherichia coli; [16]) was > 4 µg/mL, the MIC (Escherichia coli; [17]) was > 4 µg/mL and the MIC (Escherichia coli; [18]) was > 4 µg/mL. For the same compound, the MIC (Escherichia coli; [19]) was > 4 µg/mL, the MIC (Escherichia coli; [20]) was > 4 µg/mL and the “interpretation of the result” value (Klebsiella ssp.; Klebsiella ssp. isolate 1) was “R”. The “interpretation of the result” value (Klebsiella ssp.; Klebsiella ssp. isolate 2) was “S”, the “interpretation of the result” value (Klebsiella ssp.; Klebsiella ssp. isolate 3) was “S” and the “interpretation of the result” value (Klebsiella ssp.; Klebsiella ssp. isolate 4) was “S”. For the same compound, the “interpretation of the result” value (Klebsiella ssp.; Klebsiella ssp. isolate 5) was “S”, the MIC (Klebsiella ssp.; [21]) was > 4 µg/mL and the MIC (Klebsiella ssp.; [22]) was ≤ 1 µg/mL. The MIC (Klebsiella ssp.; [23]) was ≤ 1 µg/mL, the MIC (Klebsiella ssp.; [24]) was ≤ 1 µg/mL and the MIC (Klebsiella ssp.; [25]) was ≤ 1 µg/mL. For the same compound, the “interpretation of the result” value (Pseudomonas aeruginosa; [6]) was “R”, the “interpretation of the result” value (Pseudomonas aeruginosa; [7]) was “R” and the “interpretation of the result” value (Pseudomonas aeruginosa; [8]) was “R”. For the same compound, the “interpretation of the result” value (Pseudomonas aeruginosa; [9]) was “R”, the “interpretation of the result” value (Pseudomonas aeruginosa; [10]) was “R” and the MIC (Pseudomonas aeruginosa; [26]) was > 4 µg/mL. The MIC (Pseudomonas aeruginosa; [27]) was > 4 µg/mL, the MIC (Pseudomonas aeruginosa; [28]) was > 4 µg/mL and the MIC (Pseudomonas aeruginosa; [29]) was > 4 µg/mL. For the same compound, the MIC (Pseudomonas aeruginosa; [30]) was > 4 µg/mL.
